From US20240376100A1 (Redona Therapeutics, Inc., priority 2021, published 2024)
Structures can show the parent of a compound that is named as a salt.

Target: PAPD5 enzyme (Homo sapiens, UniProt Q8NDF8)
Test: PAPD5 assay (AMP incorporation onto 3'-terminus of RNA substrate, fluorescence quench)
Assay type: biochemical
Conditions: PAPD5 protein 0.3 nM, ATP 50 μM, 30 minutes preincubation, room temperature; read-out: Potency PAPD5 IC50
Procedure: The purpose of the PAPD5 assay is to determine compound potency against PAPD5 enzyme through the measurement of IC50. Compound inhibition is measured as a function of AMP incorporation onto the 3′-terminus of an RNA substrate in the presence of active PAPD5, ATP, and inhibitor. The PAPD5 assay was done in a black, non-binding, 384 well plate (Corning #3575). All steps were performed at room temperature. For a typical assay, a 40 ul aliquot of assay buffer (50 mM HEPES pH 7.3, 20 mM KCl, 10 mM MgCl2, 10 mMM DTT, 0.01% Triton X-100, 40 U/ml RNAsin (Promega)) containing PAPD5 protein (final 10 concentration: 0.3 nM) and ATP (final concentration 50 μM) was added to each well. Next, 1 ul of compound in 100% DMSO is transferred from a compound dilution plate in which the compound is serially diluted. The plate was placed on a plate shaker for 30 seconds to produce mixing, then incubated for 30 minutes. Next, 10 ul of a 5× mix of RNA substrate (5′-fluorescein-AUAGAG-3′ (IDT)) and a DNA oligonucleotide that is complementary to the AMP modified RNA product (5′-TCTCTATT-3′-TAMRA, wherein the first two nucleotides are locked nucleic acids (IDT)) was added (final concentrations: 5 nM and 20 nM, respectively). The plate was placed on a plate shaker for 30 seconds to produce mixing then immediately placed in a Biotek Cytation 5 plate reader, and the time-dependent decrease in fluorescein fluorescence resulting from annealing of the TAMRA labeled quenching probe was recorded, using the kinetics mode of the reader (typical run time is 90 minutes). Reaction rates were obtained using linear fits to the early portion of progress curves. IC50 values were calculated using a four-parameter fit with 100% enzyme activity determined from the DMSO control and 0% activity from control samples lacking UTP.
“+” represents an IC50 value that is greater than 50 PM; “++” represents an IC50 value that is greater than 10 μM and equal to or less than 50 μM; “+++” represents an IC50 value that is greater than 1 μM and equal to or less than 10 μM; and “++++” represents an IC50 value that is equal to or less than 1 μM.

Sequence of PAPD5 enzyme (Q8NDF8 whole entry): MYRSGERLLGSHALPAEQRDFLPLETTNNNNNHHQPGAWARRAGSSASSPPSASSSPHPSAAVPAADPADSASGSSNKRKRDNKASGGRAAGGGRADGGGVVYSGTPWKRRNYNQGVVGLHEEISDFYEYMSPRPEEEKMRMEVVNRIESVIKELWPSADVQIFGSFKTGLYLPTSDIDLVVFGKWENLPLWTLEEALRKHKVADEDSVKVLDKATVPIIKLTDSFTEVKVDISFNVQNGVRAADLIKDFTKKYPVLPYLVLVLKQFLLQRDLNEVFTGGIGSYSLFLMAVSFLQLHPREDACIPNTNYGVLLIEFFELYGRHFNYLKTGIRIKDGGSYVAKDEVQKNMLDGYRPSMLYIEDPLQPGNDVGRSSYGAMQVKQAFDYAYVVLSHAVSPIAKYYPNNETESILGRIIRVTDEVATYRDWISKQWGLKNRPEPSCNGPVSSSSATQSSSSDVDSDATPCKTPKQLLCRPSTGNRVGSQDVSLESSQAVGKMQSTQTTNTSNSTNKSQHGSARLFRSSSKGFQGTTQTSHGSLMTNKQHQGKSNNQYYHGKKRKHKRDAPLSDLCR

Cc1cc(O)ncc1-n1cc(C(=O)O)c(=O)c2cc(C#N)c(N3Cc4cccnc4C3)cc21 [Example 60, 6-cyano-7-(5,7-dihydro-6H-pyrrolo[3,4-b]pyridin-6-yl)-1-(6-hydroxy-4-methylpyridin-3-yl)-4-oxo-1,4-dihydroquinoline-3-carboxylic acid]
IC50: ≤ 1000 nM

CC1(Cn2cc(C(=O)O)c(=O)c3cc(Cl)c(N4Cc5cccnc5C4)nc32)CCC1 [Example 61, 6-chloro-7-(5,7-dihydro-6H-pyrrolo[3,4-b]pyridin-6-yl)-1-((1-methylcyclobutyl)methyl)-4-oxo-1,4-dihydro-1,8-naphthyridine-3-carboxylic acid]
IC50: ≤ 1000 nM

N#Cc1cc2c(=O)c(C(=O)O)cn(CC3CCCC3)c2nc1N1Cc2cccnc2C1 [Example 62, 6-cyano-1-(cyclopentylmethyl)-7-(5,7-dihydro-6H-pyrrolo[3,4-b]pyridin-6-yl)-4-oxo-1,4-dihydro-1,8-naphthyridine-3-carboxylic acid]
IC50: ≤ 1000 nM

N#Cc1cc2c(=O)c(C(=O)O)cn(CC3CCCCC3)c2nc1N1Cc2cccnc2C1 [Example 63, 6-cyano-1-(cyclohexylmethyl)-7-(5,7-dihydro-6H-pyrrolo[3,4-b]pyridin-6-yl)-4-oxo-1,4-dihydro-1,8-naphthyridine-3-carboxylic acid]
IC50: ≤ 1000 nM

Cc1ccnc2c1CN(c1nc3c(cc1Cl)c(=O)c(C(=O)O)cn3-c1cnccn1)C2 [Example 64, 6-chloro-7-(4-methyl-5,7-dihydro-6H-pyrrolo[3,4-b]pyridin-6-yl)-4-oxo-1-(pyrazin-2-yl)-1,4-dihydro-1,8-naphthyridine-3-carboxylic acid]
IC50: ≤ 1000 nM

O=C(O)c1cn(Cc2ccccn2)c2nc(N3Cc4cccnc4C3)c(Cl)cc2c1=O [Example 65, 6-chloro-7-(5,7-dihydro-6H-pyrrolo[3,4-b]pyridin-6-yl)-4-oxo-1-(pyridin-2-ylmethyl)-1,4-dihydro-1,8-naphthyridine-3-carboxylic acid]
IC50: ≤ 1000 nM

O=C(O)c1cn(Cc2ccncc2)c2nc(N3Cc4cccnc4C3)c(Cl)cc2c1=O [Example 66, 6-chloro-7-(5,7-dihydro-6H-pyrrolo[3,4-b]pyridin-6-yl)-4-oxo-1-(pyridin-4-ylmethyl)-1,4-dihydro-1,8-naphthyridine-3-carboxylic acid]
IC50: ≤ 1000 nM

O=C(O)c1cn(Cc2cccnc2)c2nc(N3Cc4cccnc4C3)c(Cl)cc2c1=O [Example 67, 6-chloro-7-(5,7-dihydro-6H-pyrrolo[3,4-b]pyridin-6-yl)-4-oxo-1-(pyridin-3-ylmethyl)-1,4-dihydro-1,8-naphthyridine-3-carboxylic acid]
IC50: ≤ 1000 nM

O=C(O)c1cn(Cc2ccccc2F)c2nc(N3Cc4cccnc4C3)c(Cl)cc2c1=O [Example 68, 6-chloro-7-(5,7-dihydro-6H-pyrrolo[3,4-b]pyridin-6-yl)-1-(2-fluorobenzyl)-4-oxo-1,4-dihydro-1,8-naphthyridine-3-carboxylic acid]
IC50: ≤ 1000 nM

O=C(O)c1cn(Cc2ccccc2Cl)c2nc(N3Cc4cccnc4C3)c(Cl)cc2c1=O [Example 69, 6-chloro-1-(2-chlorobenzyl)-7-(5,7-dihydro-6H-pyrrolo[3,4-b]pyridin-6-yl)-4-oxo-1,4-dihydro-1,8-naphthyridine-3-carboxylic acid]
IC50: ≤ 1000 nM

Cc1ccccc1Cn1cc(C(=O)O)c(=O)c2cc(Cl)c(N3Cc4cccnc4C3)nc21 [Example 70, 6-chloro-7-(5,7-dihydro-6H-pyrrolo[3,4-b]pyridin-6-yl)-1-(2-methylbenzyl)-4-oxo-1,4-dihydro-1,8-naphthyridine-3-carboxylic acid]
IC50: ≤ 1000 nM

COc1ncccc1Cn1cc(C(=O)O)c(=O)c2cc(Cl)c(N3Cc4cccnc4C3)nc21 [Example 71, 6-chloro-7-(5,7-dihydro-6H-pyrrolo[3,4-b]pyridin-6-yl)-1-((2-methoxypyridin-3-yl)methyl)-4-oxo-1,4-dihydro-1,8-naphthyridine-3-carboxylic acid]
IC50: ≤ 1000 nM

CC(C)(C)OC(=O)N1CCC(Cn2cc(C(=O)O)c(=O)c3cc(Cl)c(N4Cc5cccnc5C4)nc32)CC1 [Example 72, 1-((1-(tert-butoxycarbonyl)piperidin-4-yl)methyl)-6-chloro-7-(5,7-dihydro-6H-pyrrolo[3,4-b]pyridin-6-yl)-4-oxo-1,4-dihydro-1,8-naphthyridine-3-carboxylic acid]
IC50: ≤ 1000 nM

CC(C)(C)OC(=O)N1CCC(n2cc(C(=O)O)c(=O)c3cc(Cl)c(N4Cc5cccnc5C4)nc32)CC1 [Example 73, 1-(1-(tert-butoxycarbonyl)piperidin-4-yl)-6-chloro-7-(5,7-dihydro-6H-pyrrolo[3,4-b]pyridin-6-yl)-4-oxo-1,4-dihydro-1,8-naphthyridine-3-carboxylic acid]
IC50: ≤ 1000 nM

COc1cnc(-n2cc(C(=O)O)c(=O)c3cc(Cl)c(N4Cc5cccnc5C4)nc32)cn1 [Example 74, 6-chloro-7-(5,7-dihydro-6H-pyrrolo[3,4-b]pyridin-6-yl)-1-(5-methoxypyrazin-2-yl)-4-oxo-1,4-dihydro-1,8-naphthyridine-3-carboxylic acid]
IC50: ≤ 1000 nM

COc1cnc(-n2cc(C(=O)O)c(=O)c3cc(F)c(N4Cc5cccnc5C4)cc32)cn1 [Example 75, 7-(5,7-dihydro-6H-pyrrolo[3,4-b]pyridin-6-yl)-6-fluoro-1-(5-methoxypyrazin-2-yl)-4-oxo-1,4-dihydroquinoline-3-carboxylic acid]
IC50: ≤ 1000 nM

COc1cnc(-n2cc(C(=O)O)c(=O)c3cc(Cl)c(N4Cc5cccnc5C4)cc32)cn1 [Example 76, 6-chloro-7-(5,7-dihydro-6H-pyrrolo[3,4-b]pyridin-6-yl)-1-(5-methoxypyrazin-2-yl)-4-oxo-1,4-dihydroquinoline-3-carboxylic acid]
IC50: ≤ 1000 nM

Cc1cc(N)ncc1-n1cc(C(=O)O)c(=O)c2cc(F)c(N3Cc4cccnc4C3)nc21 [Example 77, 1-(6-amino-4-methylpyridin-3-yl)-7-(5,7-dihydro-6H-pyrrolo[3,4-b]pyridin-6-yl)-6-fluoro-4-oxo-1,4-dihydro-1,8-naphthyridine-3-carboxylic acid TFA salt]
IC50: ≤ 1000 nM

Cc1cc(N)ncc1-n1cc(C(=O)O)c(=O)c2cc(Cl)c(N3Cc4cccnc4C3)nc21 [Example 78, 1-(6-amino-4-methylpyridin-3-yl)-6-chloro-7-(5,7-dihydro-6H-pyrrolo[3,4-b]pyridin-6-yl)-4-oxo-1,4-dihydro-1,8-naphthyridine-3-carboxylic acid TFA salt]
IC50: ≤ 1000 nM

Cc1cc(N)ncc1-n1cc(C(=O)O)c(=O)c2cc(F)c(N3Cc4cccnc4C3)cc21 [Example 79, 1-(6-amino-4-methylpyridin-3-yl)-7-(5,7-dihydro-6H-pyrrolo[3,4-b]pyridin-6-yl)-6-fluoro-4-oxo-1,4-dihydroquinoline-3-carboxylic acid TFA salt]
IC50: ≤ 1000 nM

Cc1cc(N)ncc1-n1cc(C(=O)O)c(=O)c2cc(C#N)c(N3Cc4cccnc4C3)cc21 [Example 80, 1-(6-amino-4-methylpyridin-3-yl)-6-cyano-7-(5,7-dihydro-6H-pyrrolo[3,4-b]pyridin-6-yl)-4-oxo-1,4-dihydroquinoline-3-carboxylic acid]
IC50: ≤ 1000 nM

CC(=O)Nc1cc(C)c(-n2cc(C(=O)O)c(=O)c3cc(Cl)c(N4Cc5cccnc5C4)cc32)cn1 [Example 81, 1-(6-acetamido-4-methylpyridin-3-yl)-6-chloro-7-(5,7-dihydro-6H-pyrrolo[3,4-b]pyridin-6-yl)-4-oxo-1,4-dihydroquinoline-3-carboxylic acid]
IC50: ≤ 1000 nM

CCC(=O)Nc1cc(C)c(-n2cc(C(=O)O)c(=O)c3cc(Cl)c(N4Cc5cccnc5C4)cc32)cn1 [Example 82, 6-chloro-7-(5,7-dihydro-6H-pyrrolo[3,4-b]pyridin-6-yl)-1-(4-methyl-6-propionamidopyridin-3-yl)-4-oxo-1,4-dihydroquinoline-3-carboxylic acid]
IC50: ≤ 1000 nM

Cc1cc(NC(=O)C(C)C)ncc1-n1cc(C(=O)O)c(=O)c2cc(Cl)c(N3Cc4cccnc4C3)cc21 [Example 83, 6-chloro-7-(5,7-dihydro-6H-pyrrolo[3,4-b]pyridin-6-yl)-1-(6-isobutyramido-4-methylpyridin-3-yl)-4-oxo-1,4-dihydroquinoline-3-carboxylic acid]
IC50: ≤ 1000 nM

O=C(O)c1cn(C2CCN(C(=O)c3ccccc3)CC2)c2cc(N3Cc4cccnc4C3)c(Cl)cc2c1=O [Example 84, 1-(1-benzoylpiperidin-4-yl)-6-chloro-7-(5,7-dihydro-6H-pyrrolo[3,4-b]pyridin-6-yl)-4-oxo-1,4-dihydroquinoline-3-carboxylic acid]
IC50: ≤ 1000 nM
